Measured values: US8314129B2, “Optical isomers of an iloperidone metabolite” (Novartis AG, priority 2004, dated 2012)

Assays:
adrenergic α1 receptors = test: radioligand binding, adrenergic α1 receptor; conditions: standard radioligand binding; human recombinant receptors and native rat brain receptors
Procedure: (§1) Receptor affinity is determined with standard radioligand binding techniques, using human recombinant receptors and native rat brain receptors. Blockade of dopamine D2 and noradrenergic α2c receptors is tested in cell-lines using luciferase reporter gene assays based on 2nd messenger responses.

5HT2A receptors = 5HT2A receptors (Homo sapiens, UniProt P28223); test: radioligand binding, 5HT2A receptor; conditions: standard radioligand binding; human recombinant receptors and native rat brain receptors; read-out: affinity for 5HT2A receptors (pKi) (converted)
Sequence of 5HT2A receptors (P28223 whole entry): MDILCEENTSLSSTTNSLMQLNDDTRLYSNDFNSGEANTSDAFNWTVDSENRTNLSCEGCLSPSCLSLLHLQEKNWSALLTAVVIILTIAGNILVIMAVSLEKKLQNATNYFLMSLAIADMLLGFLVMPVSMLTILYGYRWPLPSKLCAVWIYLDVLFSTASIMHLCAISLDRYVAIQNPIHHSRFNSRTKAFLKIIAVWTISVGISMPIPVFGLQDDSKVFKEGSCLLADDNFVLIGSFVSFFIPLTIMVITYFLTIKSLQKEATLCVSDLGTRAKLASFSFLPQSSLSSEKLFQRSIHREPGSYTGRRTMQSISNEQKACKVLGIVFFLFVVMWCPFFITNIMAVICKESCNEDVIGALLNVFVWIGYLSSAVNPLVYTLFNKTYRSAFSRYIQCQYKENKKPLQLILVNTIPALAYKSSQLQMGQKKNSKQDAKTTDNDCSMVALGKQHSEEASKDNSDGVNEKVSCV
Procedure: as §1

adrenergic α2c receptors = molecular target: T1, adrenergic α2c receptors (Homo sapiens, UniProt P18825); test: radioligand binding, adrenergic α2c receptor; conditions: standard radioligand binding; human recombinant receptors and native rat brain receptors; read-out: affinity for adrenergic α2c receptors (pKi) (converted)
T1 sequence (P18825 1-462): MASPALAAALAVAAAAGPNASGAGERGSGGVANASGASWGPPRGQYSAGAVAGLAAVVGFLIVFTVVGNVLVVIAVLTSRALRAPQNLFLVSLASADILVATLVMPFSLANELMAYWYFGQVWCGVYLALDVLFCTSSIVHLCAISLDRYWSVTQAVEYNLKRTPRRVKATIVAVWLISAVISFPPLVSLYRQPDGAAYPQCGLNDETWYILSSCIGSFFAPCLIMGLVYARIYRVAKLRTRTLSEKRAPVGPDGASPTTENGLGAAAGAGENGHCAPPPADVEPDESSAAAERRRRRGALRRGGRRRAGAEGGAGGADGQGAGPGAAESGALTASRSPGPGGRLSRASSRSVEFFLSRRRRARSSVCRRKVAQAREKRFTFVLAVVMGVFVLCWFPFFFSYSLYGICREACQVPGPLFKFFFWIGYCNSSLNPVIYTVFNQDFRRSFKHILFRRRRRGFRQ
Procedure: as §1

5HT6 receptors = 5HT6 receptors (Homo sapiens, UniProt P50406); test: radioligand binding, 5HT6 receptor; conditions: standard radioligand binding; human recombinant receptors and native rat brain receptors; read-out: affinity for 5HT6 receptors (pKi) (converted)
Sequence of 5HT6 receptors (P50406 whole entry): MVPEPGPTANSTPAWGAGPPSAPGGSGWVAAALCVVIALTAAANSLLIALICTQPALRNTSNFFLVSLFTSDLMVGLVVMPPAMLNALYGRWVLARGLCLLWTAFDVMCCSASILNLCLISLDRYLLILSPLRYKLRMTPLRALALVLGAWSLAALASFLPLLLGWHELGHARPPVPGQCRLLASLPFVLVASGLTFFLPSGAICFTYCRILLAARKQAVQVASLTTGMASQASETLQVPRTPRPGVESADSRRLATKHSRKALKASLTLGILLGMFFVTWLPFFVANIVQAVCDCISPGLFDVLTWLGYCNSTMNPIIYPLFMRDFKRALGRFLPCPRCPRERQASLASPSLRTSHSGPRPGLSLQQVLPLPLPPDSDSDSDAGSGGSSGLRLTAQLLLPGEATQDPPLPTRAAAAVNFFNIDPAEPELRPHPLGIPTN
Procedure: as §1

[1] = higher than parent drug iloperidone; cited from earlier work
[2] = metabolite formation in humans following administration of iloperidone; assay type: in vivo, human
Source text: P-88-8991 consists of a mixture of two enantiomers which have never been disclosed in the literature.

affinity for adrenergic α1 receptors (pKi) (adrenergic α1 receptors)	Ki (5HT2A receptors) [µM]	Ki (adrenergic α2c receptors) [µM]	Ki (5HT6 receptors) [µM]	SMILES	plasma levels in human relative to the parent drug [1]	stereospecific formation of P-88-8991 enantiomer [2]
8.9	0.00126	0.0158	0.00794	COc1cc([C@H](C)O)ccc1OCCCN1CCC(c2noc3cc(F)ccc23)CC1 [formula I, (S)-1-(4-{3-[4-(6-fluoro-benzo[d]isoxazol-3-yl)-piperidin-1-yl]-propoxy}-3-methoxy-phenyl)-ethanol]	–	–
–	–	–	–	COc1cc(C(C)O)ccc1OCCCN1CCC(c2noc3cc(F)ccc23)CC1 (racemic) [P-88-8991]	about 1.5 fold	–
9.2	0.00126	0.02	0.0158	COc1cc([C@@H](C)O)ccc1OCCCN1CCC(c2noc3cc(F)ccc23)CC1 [formula II, (R)-1-(4-{3-[4-(6-fluoro-benzo[d]isoxazol-3-yl)-piperidin-1-yl]propoxy}-3-methoxy-phenyl}-ethanol]	–	–
–	–	–	–	COc1cc(C(C)=O)ccc1OCCCN1CCC(c2noc3cc(F)ccc23)CC1 [iloperidone, 1-(4-{3-[4-(6-fluoro-benzo[d]isoxazol-3-yl)piperidin-1-yl]propoxy}-3-methoxy-phenyl)-ethanone]	–	humans produce only one enantiomer stereospecifically
